Converted amounts (≈) assume the structure as drawn.
Experiment: Solubility of each monomer in chlorobenzene at room temperature
Type: physicochemical
From the text: The term “solubility of the unit” as used herein means measurement of the solubility in a solution of each unit monomer at room temperature.

Brc1ccc(-c2ccc(-c3ccc(Br)s3)c3nsnc23)s1
Solubility: 5000 µg/mL (≈ 10.9 mM)
